From publication PMC6768109, “A novel assay for measuring recombinant human lysophosphatidylcholine acyltransferase 3 activity” (FEBS Open Bio, 2019)
Blank lines part the entries; values can stand above or below the molecule they belong to.

Key:
[1] = molecular target: T1, recombinant human lysophosphatidylcholine acyltransferase 3 (rhLPCAT3) (Homo sapiens, UniProt Q6P1A2); assay: reversed-phase HPLC fluorescence assay of NBD-PC formation by purified rhLPCAT3; format: biochemical
T1 construct: gene LPCAT3; human LPCAT3 (BC065194.1) with HRV 3C site and C-terminal Twin-strep-tag, expressed in Sf9 cells, purified in DDM
T1 sequence (Q6P1A2 2-487): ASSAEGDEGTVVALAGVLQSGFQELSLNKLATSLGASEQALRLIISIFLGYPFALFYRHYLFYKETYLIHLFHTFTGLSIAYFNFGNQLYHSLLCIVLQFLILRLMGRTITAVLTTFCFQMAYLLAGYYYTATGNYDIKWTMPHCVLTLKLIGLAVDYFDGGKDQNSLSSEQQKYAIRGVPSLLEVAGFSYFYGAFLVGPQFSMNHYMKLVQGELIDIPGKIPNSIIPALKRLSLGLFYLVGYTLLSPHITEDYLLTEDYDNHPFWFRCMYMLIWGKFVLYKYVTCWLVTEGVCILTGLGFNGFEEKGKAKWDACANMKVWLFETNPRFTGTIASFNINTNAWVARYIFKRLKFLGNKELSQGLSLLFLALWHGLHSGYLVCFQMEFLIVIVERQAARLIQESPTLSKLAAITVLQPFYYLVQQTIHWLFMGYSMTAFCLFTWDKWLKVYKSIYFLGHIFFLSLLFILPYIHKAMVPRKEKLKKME

[2] = substrate: CCCCC/C=C\C/C=C\C/C=C\C/C=C\CCCC(=O)SCCNC(=O)CCNC(=O)[C@H](O)C(C)(C)COP(=O)(O)OP(=O)(O)OC[C@H]1O[C@@H](n2cnc3c(N)ncnc32)[C@H](O)[C@@H]1OP(=O)(O)O; assay: bisubstrate kinetics (Km) of purified enzyme, reversed-phase HPLC with fluorescence detection; format: biochemical, Homo sapiens

IC50 [1]: 174 ± 1.04 µM
Molecule: CCCOC(=O)c1ccc(N2C(=O)C(Cl)=C(Cl)C2=O)cc1 [TSI-10]

B1: recombinant human lysophosphatidylcholine acyltransferase 3 (rhLPCAT3) (Homo sapiens) (protein)
chain: T1 sequence (Q6P1A2 2-487)
notes: human LPCAT3 (BC065194.1) with HRV 3C site and C-terminal Twin-strep-tag, expressed in Sf9 cells, purified in DDM
Km [2]: 11.03 ± 0.51 µM
